Experimental findings from patent publication US12304932B2, “PACAP stabilized peptide” (SENJU PHARMACEUTICAL CO., LTD., priority 2017, dated 2025) are described below.

Square brackets hold non-standard residues; d marks the D form. Peptide text beside a SMILES is read from it. Ala(1H-tetrazol-5-yl) = N[C@@H](Cc1nnn[nH]1)C(=O)O

A short description of this data set: Peptide stability tests 2 and 3: Tris buffer pH 7.0, stored at 60° C., HPLC conditions 2. It is filed as physicochemical. Particulars: 100 μM peptide, Tris buffer pH 7.0, 60° C.; for survival rate after correction for water, 60° C., 2-week storage: 2 weeks. Here is the method:
(§1) Peptides 1, 2 and 6 to 9 synthesized in Example 2 were weighed and dissolved in Tris buffer (pH 7.0) to prepare 1.0 mM peptide solutions. The solutions were filtered with a Chromatdisk (product of Merck Millipore, Millex-GV, 0.22 μm). Each filtrate was diluted to 100 μM with Tris buffer (pH 7.0) and dispensed into a tube (Protein LoBind Tube by Eppendorf Co.). The prepared peptide solutions were incubated for 1 week or 2 weeks in a 60° C. thermostatic bath to obtain stored samples. A simultaneously prepared sample among the peptide solutions that was not stored was used as a standard sample (initial sample). The standard sample and the stored samples were stored at −30° C. until sample analysis.
Each stored sample was measured under the following HPLC analysis conditions 2, and the survival rate after correction for water for each peptide among the stored samples was calculated in the same manner as Example 3.
Column: XSelect CSH C18 by Waters Co., 5 μm, 4.6×250 mm
Guard column: XSelect CSH C18 by Waters. Co., 5 μm, 4.6×20 mm Guard Cartridge
Detection wavelength: 220 nm
Mobile phase A: 0.1% formic acid in water
Mobile phase B: 0.1% formic acid in acetonitrile
Measuring time: 20 minutes
Measuring sample injection rate: 50 μL
Column temperature: 40° C.
Mobile phase delivery: The mixing ratio of mobile phase A and mobile phase B was varied as shown in Table 5 for linear concentration gradient control.
as §1, with “Peptides 12 to 25, 27” for “Peptides 1, 2”, “and 28” for “and 6 to 9”, “for one” for “for 1”
The survival rate after correction for water for each peptide among the stored samples was calculated in the same manner as Example 4, and the results are shown in Table 7.
as §1, with “29” for “1, 2 and 6”, “34” for “9”, “for” for “for 1 week or”
The survival rate after correction for water for each peptide among the stored samples was calculated in the same manner as Example 4, and the results are shown in Table 7-2.

For the compound `CC[C@H](C)[C@H](NC(=O)CNC(=O)[C@H](Cc1nnn[nH]1)NC(=O)[C@H](CO)NC(=O)[C@H](Cc1c[nH]cn1)NC(C)=O)C(=O)N[C@@H](Cc1ccccc1)C(=O)N[C@H](C(=O)N[C@@H](Cc1nnn[nH]1)C(=O)N[C@@H](CO)C(=O)N[C@@H](Cc1ccc(O)cc1)C(=O)N[C@@H](CO)C(=O)N[C@@H](CCCNC(=N)N)C(=O)N[C@@H](Cc1ccc(O)cc1)C(=O)N[C@@H](CCCNC(=N)N)C(=O)N[C@@H](CCCCN)C(=O)N[C@@H](CCC(N)=O)C(=O)N[C@@H](CC(C)C)C(=O)N[C@@H](C)C(=O)N[C@H](C(=O)N[C@@H](CCCCN)C(=O)N[C@@H](CCCCN)C(=O)N[C@@H](Cc1ccc(O)cc1)C(=O)N[C@@H](CC(C)C)C(=O)N[C@@H](C)C(=O)N[C@@H](C)C(=O)N[C@H](C(=O)N[C@@H](C)C(N)=O)C(C)C)C(C)C)[C@@H](C)O` [Peptide 20] (Ac-HS[Ala(1H-tetrazol-5-yl)]GIFT[Ala(1H-tetrazol-5-yl)]SYSRYRKQLAVKKYLAAVA-NH2), the “survival rate after correction for water, 60° C., 1-week storage” value amounted to 93.9% and the “survival rate after correction for water, 60° C., 2-week storage” value was 91.8%. The corresponding values for `CC[C@H](C)[C@H](NC(=O)CNC(=O)[C@H](Cc1nnn[nH]1)NC(=O)[C@H](CO)NC(=O)[C@H](Cc1c[nH]cn1)NC(C)=O)C(=O)N[C@@H](Cc1ccccc1)C(=O)N[C@H](C(=O)N[C@@H](Cc1nnn[nH]1)C(=O)N[C@@H](CO)C(=O)N[C@@H](Cc1ccc(O)cc1)C(=O)N[C@@H](CO)C(=O)N[C@@H](CCCNC(=N)N)C(=O)N[C@@H](Cc1ccc(O)cc1)C(=O)N[C@@H](CCCNC(=N)N)C(=O)N[C@@H](CCCNC(=N)N)C(=O)N[C@@H](CCC(N)=O)C(=O)N[C@@H](CC(C)C)C(=O)N[C@@H](C)C(=O)N[C@H](C(=O)N[C@@H](CCCNC(=N)N)C(=O)N[C@@H](CCCNC(=N)N)C(=O)N[C@@H](Cc1ccc(O)cc1)C(=O)N[C@@H](CC(C)C)C(=O)N[C@@H](C)C(=O)N[C@@H](C)C(=O)N[C@H](C(=O)N[C@@H](CC(C)C)C(N)=O)C(C)C)C(C)C)[C@@H](C)O` [Peptide 21] (Ac-HS[Ala(1H-tetrazol-5-yl)]GIFT[Ala(1H-tetrazol-5-yl)]SYSRYRRQLAVRRYLAAVL-NH2) are 97.8% and 93.5%. On to `CC[C@H](C)[C@H](NC(=O)CNC(=O)[C@H](Cc1nnn[nH]1)NC(=O)[C@H](CO)NC(=O)[C@H](Cc1c[nH]cn1)NC(C)=O)C(=O)N[C@@H](Cc1ccccc1)C(=O)N[C@H](C(=O)N[C@@H](Cc1nnn[nH]1)C(=O)N[C@@H](CO)C(=O)N[C@@H](Cc1ccc(O)cc1)C(=O)N[C@@H](CO)C(=O)N[C@@H](CCCNC(=N)N)C(=O)N[C@@H](Cc1ccc(O)cc1)C(=O)N[C@@H](CCCNC(=N)N)C(=O)N[C@@H](CCCNC(=N)N)C(=O)N[C@@H](CCC(N)=O)C(=O)N[C@@H](CC(C)C)C(=O)N[C@@H](C)C(=O)N[C@H](C(=O)N[C@@H](CCCNC(=N)N)C(=O)N[C@@H](CCCNC(=N)N)C(=O)N[C@@H](Cc1ccc(O)cc1)C(=O)N[C@@H](CC(C)C)C(=O)N[C@@H](C)C(=O)N[C@@H](C)C(=O)N[C@H](C(=O)N[C@@H](CC(C)C)C(=O)NCC(=O)N[C@@H](CCCNC(=N)N)C(=O)N[C@@H](CCCNC(=N)N)C(N)=O)C(C)C)C(C)C)[C@@H](C)O` [Peptide 22] (Ac-HS[Ala(1H-tetrazol-5-yl)]GIFT[Ala(1H-tetrazol-5-yl)]SYSRYRRQLAVRRYLAAVLGRR-NH2), for which the “survival rate after correction for water, 60° C., 1-week storage” value is given as 98.2%.
